Experimental findings from patent US20250195530A1, “POLQ INHIBITORS” (ASTRAZENECA AB, priority 2022, published 2025) are described below.

One assay has as its system DLD-1 cells. Briefly: Inhibition of proliferation, DLD-1 BRCA2 wt control (Cell Titre Glo 3D). The class given is cell-based. The conditions noted are these: Homo sapiens, DLD-1, DLD1 BRCA2 wt cells; mean; read-out: POLQ PD Prolif Lumin DLD1 mean PIC50 (converted). The gist of the method: (§1)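 Cells are seeded in RPMI 1640 (phenol red free, 10% FBS, GlutaMAX) onto pre-dosed compound (10 μM to 0.51 nM, three-fold). Plates are incubated at 37 °C, and medium plus compound are refreshed on day 6. Viability is read by CellTiter-Glo 3D at day 7 (DLD-1) or day 12 (DLD-1 BRCA2−/−), and the IC50 is fitted.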

The next assay deals with DLD-1 BRCA2−/− cells. In words: Homologous recombination synthetic lethal inhibition of proliferation, DLD-1 BRCA2-/- (Cell Titre Glo 3D). The class given is cell-based. The conditions noted are these: Homo sapiens, DLD-1, DLD-1 BRCA2 −/− cells; mean; read-out: POLQ PD Prolif Lumin BRCA2 −/− mean pIC50 (converted). The gist of the method:
as §1

A value given as a limit tells only on which side of the number the result lay.

`Cc1cnc(Cn2c(-c3ccc(CC(N)=O)cc3Cl)nc3c(OC4(C)CC4)ncnc32)s1` [Example T4, 2-(3-chloro-4-(6-(1-methylcyclopropoxy)-9-((5-methylthiazol-2-yl)methyl)-9H-purin-8-yl)phenyl)acetamide]: the IC50 in the assay on DLD-1 cells was over 10000 nM; with DLD-1 BRCA2−/− cells, 1260 nM.
With `Cc1ccnc(Cn2c(-c3ccc(S(N)(=O)=O)cc3Cl)nc3c(OC4(C)CC4)ncnc32)c1` [Example T9, 3-chloro-4-(6-(1-methylcyclopropoxy)-9-((4-methylpyridin-2-yl)methyl)-9H-purin-8-yl)benzenesulfonamide], the IC50 with DLD-1 cells was over 10000 nM; in the assay on DLD-1 BRCA2−/− cells, 501 nM.
On the same counts, the results for `CC1(Oc2ncnc3c2nc(-c2cccc(C(=O)O)c2Cl)n3Cc2cccc(Cl)c2)CC1` [Example T12, 2-chloro-3-(9-(3-chlorobenzyl)-6-(1-methylcyclopropoxy)-9H-purin-8-yl)benzoic acid] are over 10000 nM and over 10000 nM.
On the same counts, the results for `Cc1ccnc(Cn2c(-c3ccc(C(=O)O)cc3Cl)nc3c(OC4(C)CC4)ncnc32)c1` [Example T13, 3-chloro-4-(6-(1-methylcyclopropoxy)-9-((4-methylpyridin-2-yl)methyl)-9H-purin-8-yl)benzoic acid] are over 10000 nM and over 10000 nM.
On the same counts, the results for `Cc1ccnc(Cn2c(-c3ccc(C(N)=O)cc3Cl)nc3c(OC4(C)CC4)ncnc32)c1` [Example T14, 3-chloro-4-(6-(1-methylcyclopropoxy)-9-((4-methylpyridin-2-yl)methyl)-9H-purin-8-yl)benzamide] are over 10000 nM and 501 nM.
`CC1(Oc2ncnc3c2nc(-c2ccc(OCCO)cc2Cl)n3Cc2cc(Cl)ccn2)CC1` [Example T15, 2-(3-chloro-4-(9-((4-chloropyridin-2-yl)methyl)-6-(1-methylcyclopropoxy)-9H-purin-8-yl)phenoxy)ethan-1-ol]: the IC50 in the assay on DLD-1 cells is over 10000 nM; in the assay with DLD-1 BRCA2−/− cells it was 100 nM.
On to `Cc1ccnc(Cn2c(-c3ccc(S(C)(=O)=O)cc3Cl)nc3c(OC4(C)CC4)ncnc32)c1` [Example T16, 8-(2-chloro-4-(methylsulfonyl)phenyl)-6-(1-methylcyclopropoxy)-9-((4-methylpyridin-2-yl)methyl)-9H-purine], for which the IC50 in the assay on DLD-1 cells was over 10000 nM; in the assay on DLD-1 BRCA2−/− cells, 794 nM.
The like results for `Cc1ccnc(Cn2c(-c3ccc(NS(C)(=O)=O)cc3Cl)nc3c(OC4(C)CC4)ncnc32)c1` [Example T29, N-(3-chloro-4-(6-(1-methylcyclopropoxy)-9-((4-methylpyridin-2-yl)methyl)-9H-purin-8-yl)phenyl)methanesulfonamide] were, in that order, over 10000 nM and 1260 nM.
For the molecule `CNCCOc1ccc(-c2nc3c(OC4(C)CC4)ncnc3n2Cc2ncc(C)s2)c(Cl)c1` [Example T34, 2-(3-chloro-4-(6-(1-methylcyclopropoxy)-9-((5-methylthiazol-2-yl)methyl)-9H-purin-8-yl)phenoxy)-N-methylethan-1-amine], the IC50 with DLD-1 cells was over 10000 nM; with DLD-1 BRCA2−/− cells, 501 nM.
Turning to `CC1(Oc2ncnc3c2nc(-c2cccc(OCC(=O)O)c2Cl)n3Cc2cccc(Cl)c2)CC1` [Example T41, 2-(2-chloro-3-(9-(3-chlorobenzyl)-6-(1-methylcyclopropoxy)-9H-purin-8-yl)phenoxy)acetic acid], the IC50 in the assay on DLD-1 cells was over 10000 nM; in the assay on DLD-1 BRCA2−/− cells, over 7940 nM.
On the same counts, the results for `Cc1ccnc(Cn2c(-c3ccc(CC(=O)O)cc3Cl)nc3c(OC4(C)CC4)ncnc32)c1` [Example T49, 2-(3-chloro-4-(6-(1-methylcyclopropoxy)-9-((4-methylpyridin-2-yl)methyl)-9H-purin-8-yl)phenyl)acetic acid] are over 10000 nM and over 10000 nM.
On to `CC1(Oc2ncnc3c2nc(-c2ccc(OC4CNC4)cc2Cl)n3Cc2cc(Cl)ccn2)CC1` [Example T50, 8-(4-(azetidin-3-yloxy)-2-chlorophenyl)-9-((4-chloropyridin-2-yl)methyl)-6-(1-methylcyclopropoxy)-9H-purine], for which the IC50 in the assay with DLD-1 cells was 5010 nM; in the assay on DLD-1 BRCA2−/− cells, 251 nM.
The like results for `CNC(=O)c1ccc(-c2nc3c(OC4(C)CC4)ncnc3n2Cc2cc(C)ccn2)c(Cl)c1` [Example T52, 3-chloro-N-methyl-4-(6-(1-methylcyclopropoxy)-9-((4-methylpyridin-2-yl)methyl)-9H-purin-8-yl)benzamide] were, in that order, over 10000 nM and 501 nM.
The like results for `CC(=O)Nc1ccc(-c2nc3c(OC4(C)CC4)ncnc3n2Cc2cc(C)ccn2)c(Cl)c1` [Example T53, N-(3-chloro-4-(6-(1-methylcyclopropoxy)-9-((4-methylpyridin-2-yl)methyl)-9H-purin-8-yl)phenyl)acetamide] were, in that order, over 10000 nM and 316 nM.
The like results for `Cc1ccnc(Cn2c(-c3cccc(CC(N)=O)c3Cl)nc3c(OC4(C)CC4)ncnc32)c1` [Example T56, 2-(2-chloro-3-(6-(1-methylcyclopropoxy)-9-((4-methylpyridin-2-yl)methyl)-9H-purin-8-yl)phenyl)acetamide] were, in that order, over 10000 nM and 794 nM.
For `CC1(Oc2ncnc3c2nc(-c2ccc(OCCCO)cc2Cl)n3Cc2cc(Cl)ccn2)CC1` [Example T64, 3-(3-chloro-4-(9-((4-chloropyridin-2-yl)methyl)-6-(1-methylcyclopropoxy)-9H-purin-8-yl)phenoxy)propan-1-ol], the figures for the IC50 in the assay on DLD-1 cells and in the assay on DLD-1 BRCA2−/− cells were over 10000 nM and 158 nM, respectively.
The like results for `CNCCOc1ccc(-c2nc3c(OC4(C)CC4)ncnc3n2Cc2cc(Cl)ccn2)c(Cl)c1` [Example T67, 2-(3-chloro-4-(9-((4-chloropyridin-2-yl)methyl)-6-(1-methylcyclopropoxy)-9H-purin-8-yl)phenoxy)-N-methylethan-1-amine] were, in that order, over 10000 nM and 126 nM.
On the same counts, the results for `CNCc1ccc(-c2nc3c(OC4(C)CC4)ncnc3n2Cc2cc(C)ccn2)c(Cl)c1` [Example T68, 1-(3-chloro-4-(6-(1-methylcyclopropoxy)-9-((4-methylpyridin-2-yl)methyl)-9H-purin-8-yl)phenyl)-N-methylmethanamine] are over 10000 nM and 1000 nM.
On the same counts, the results for `Cc1ccnc(Cn2c(-c3ccc(OCCN)cc3Cl)nc3c(OC4(C)CC4)ncnc32)c1` [Example T69, 2-(3-chloro-4-(6-(1-methylcyclopropoxy)-9-((4-methylpyridin-2-yl)methyl)-9H-purin-8-yl)phenoxy)ethan-1-amine] are over 10000 nM and 200 nM.
Regarding `Cc1cnc(Cn2c(-c3ccc(O[C@H]4CCNC4)cc3Cl)nc3c(OC4(C)CC4)ncnc32)s1` [Example T70, (S)-2-((8-(2-chloro-4-(pyrrolidin-3-yloxy)phenyl)-6-(1-methylcyclopropoxy)-9H-purin-9-yl)methyl)-5-methylthiazole], the IC50 with DLD-1 cells was over 10000 nM; with DLD-1 BRCA2−/− cells, 631 nM.
The like results for `Cc1cnc(Cn2c(-c3ccc(OCCN(C)C)cc3Cl)nc3c(OC4(C)CC4)ncnc32)s1` [Example T72, 2-(3-chloro-4-(6-(1-methylcyclopropoxy)-9-((5-methylthiazol-2-yl)methyl)-9H-purin-8-yl)phenoxy)-N,N-dimethylethan-1-amine] were, in that order, over 10000 nM and 200 nM.
`Cc1cnc(Cn2c(-c3cccc(OCCN(C)C)c3Cl)nc3c(OC4(C)CC4)ncnc32)s1` [Example T73, 2-(2-chloro-3-(6-(1-methylcyclopropoxy)-9-((5-methylthiazol-2-yl)methyl)-9H-purin-8-yl)phenoxy)-N,N-dimethylethan-1-amine]: the IC50 is over 10000 nM in the assay with DLD-1 cells and 631 nM with DLD-1 BRCA2−/− cells.
With `CNCCCOc1ccc(-c2nc3c(OC4(C)CC4)ncnc3n2Cc2ncc(C)s2)c(Cl)c1` [Example T74, 3-(3-chloro-4-(6-(1-methylcyclopropoxy)-9-((5-methylthiazol-2-yl)methyl)-9H-purin-8-yl)phenoxy)-N-methylpropan-1-amine], the IC50 is over 10000 nM in the assay on DLD-1 cells and 501 nM in the assay on DLD-1 BRCA2−/− cells.
On the same counts, the results for `CC1(Oc2ncnc3c2nc(-c2ccc(OCCN4CCNCC4)cc2Cl)n3Cc2nnco2)CC1` [Example T76, 2-((8-(2-chloro-4-(2-(piperazin-1-yl)ethoxy)phenyl)-6-(1-methylcyclopropoxy)-9H-purin-9-yl)methyl)-1,3,4-oxadiazole] are over 3160 nM and over 10000 nM.
The like results for `CC1(Oc2ncnc3c2nc(-c2cccc(/C=C/C(=O)O)c2Cl)n3Cc2cccc(Cl)c2)CC1` [Example T80, (E)-3-(2-chloro-3-(9-(3-chlorobenzyl)-6-(1-methylcyclopropoxy)-9H-purin-8-yl)phenyl)acrylic acid] were, in that order, over 10000 nM and 100 nM.
On the same counts, the results for `CC1(Oc2ncnc3c2nc(-c2ccc(OCCC(=O)O)cc2Cl)n3Cc2cccc(Cl)c2Cl)CC1` [Example T85, 3-(3-chloro-4-(9-(2,3-dichlorobenzyl)-6-(1-methylcyclopropoxy)-9H-purin-8-yl)phenoxy)propanoic acid] are over 10000 nM and 794 nM.
In the case of `CC1(Oc2ncnc3c2nc(-c2ccc(OCCC(=O)O)cc2Cl)n3Cc2cccc(Cl)c2)CC1` [Example T87, 3-(3-chloro-4-(9-(3-chlorobenzyl)-6-(1-methylcyclopropoxy)-9H-purin-8-yl)phenoxy)propanoic acid], the IC50 with DLD-1 cells was over 10000 nM; with DLD-1 BRCA2−/− cells it was 398 nM.
The like results for `CC1(Oc2ncnc3c2nc(-c2cccc(OCCC(=O)O)c2Cl)n3Cc2cccc(Cl)c2)CC1` [Example T89, 3-(2-chloro-3-(9-(3-chlorobenzyl)-6-(1-methylcyclopropoxy)-9H-purin-8-yl)phenoxy)propanoic acid] were, in that order, over 10000 nM and 39.8 nM.
